# Assays:
# blackgrass = assay: Test Example 5: herbicidal effect by foliage application, plastic box (Table 20, symbol J); type: in vivo, blackgrass (Alopecurus myosuroides); conditions: foliage application, 320 g/ha; for effect on blackgrass (J): 3 weeks after application; for herbicidal effect on blackgrass (J): three weeks after application
# Summary of the method: (§1)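 Sow seeds spot-wise in sterilized diluvial soil; cover with ~1.5 cm soil. Grow 14 days in greenhouse, 25° C. to 30° C. Spray foliage with emulsion diluted to predetermined amount. Rate effect after 3 weeks.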
# persian speedwell = assay: Test Example 5: herbicidal effect by foliage application, plastic box (Table 20, symbol R); type: in vivo, Persian speedwell (Veronica persica); conditions: foliage application, 320 g/ha; for effect on persian speedwell (R): 3 weeks after application; for herbicidal effect on persian speedwell (R): three weeks after application
# Summary of the method: as §1
# lambsquarters = assay: Test Example 5: herbicidal effect by foliage application, plastic box (Table 20, symbol O); type: in vivo, lambsquarters (Chenopodium album); conditions: foliage application, 320 g/ha; for effect on lambsquarters (O): 3 weeks after application; for herbicidal effect on lambsquarters (O): three weeks after application
# Summary of the method: as §1
# barnyard grass [1] = assay: Test Example 5: herbicidal effect by foliage application, plastic box (Table 20, symbol H); type: in vivo, barnyard grass (Echinochloa crus-galli); conditions: foliage application, 320 g/ha; for effect on barnyard grass (H): 3 weeks after application; for herbicidal effect on barnyard grass (H): three weeks after application
# Summary of the method: as §1
# barnyard grass [2] = assay: Test Example 3: herbicidal effect by foliage application, Wagner pot (Table 18, symbol H); type: in vivo, barnyard grass (Echinochloa crus-galli); conditions: for herbicidal effect on H (barnyard grass), rating 0-5 / herbicidal effect on barnyard grass (H): 320 g/ha
# Summary of the method: (§2)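 Plants were sown in alluvial soil held under 0.1–0.5 cm standing water and grown 14 days in a greenhouse at 25–30 °C. An emulsifiable formulation, water-diluted to the set dose, was then sprayed onto the foliage, and effects were scored three weeks later using previously defined criteria.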
# wild oat = assay: Test Example 5: herbicidal effect by foliage application, plastic box (Table 20, symbol I); type: in vivo, wild oat (Avena fatua); conditions: foliage application, 320 g/ha; for effect on wild oat (I): 3 weeks after application; for herbicidal effect on wild oat (I): three weeks after application
# Summary of the method: as §1
# southern crabgrass = assay: Test Example 5: herbicidal effect by foliage application, plastic box (Table 20, symbol F); type: in vivo, southern crabgrass (Digitaria ciliaris); conditions: foliage application, 320 g/ha; for effect on southern crabgrass (F): 3 weeks after application; for herbicidal effect on southern crabgrass (F): three weeks after application
# Summary of the method: as §1
# windgrass = assay: Test Example 5: herbicidal effect by foliage application, plastic box (Table 20, symbol L); type: in vivo, windgrass (Apera spica-venti); conditions: foliage application, 320 g/ha; for effect on windgrass (L): 3 weeks after application; for herbicidal effect on windgrass (L): three weeks after application
# Summary of the method: as §1
# rice flat sedge = assay: Test Example 3: herbicidal effect by foliage application, Wagner pot (Table 18, symbol E); type: in vivo, rice flat sedge (Cyperus iria); conditions: for herbicidal effect on E (rice flat sedge), rating 0-5 / herbicidal effect on rice flat sedge (E): 320 g/ha
# Summary of the method: as §2
# Italian ryegrass = assay: Test Example 5: herbicidal effect by foliage application, plastic box (Table 20, symbol K); type: in vivo, Italian ryegrass (Lolium multiflorum); conditions: foliage application, 320 g/ha; for effect on Italian ryegrass (K): 3 weeks after application; for herbicidal effect on Italian ryegrass (K): three weeks after application
# Summary of the method: as §1
# Chinese sprangletop = assay: Test Example 3: herbicidal effect by foliage application, Wagner pot (Table 18, symbol D); type: in vivo, chinese sprangletop (Leptochloa chinensis); conditions: for herbicidal effect on D (Chinese sprangletop), rating 0-5 / herbicidal effect on Chinese sprangletop (D): 320 g/ha
# Summary of the method: as §2
# green foxtail = assay: Test Example 5: herbicidal effect by foliage application, plastic box (Table 20, symbol G); type: in vivo, green foxtail (Setaria viridis); conditions: foliage application, 320 g/ha; for effect on green foxtail (G): 3 weeks after application; for herbicidal effect on green foxtail (G): three weeks after application
# Summary of the method: as §1
# velvetleaf = assay: Test Example 5: herbicidal effect by foliage application, plastic box (Table 20, symbol M); type: in vivo, velvetleaf (Abutilon theophrasti); conditions: foliage application, 320 g/ha; for effect on velvetleaf (M): 3 weeks after application; for herbicidal effect on velvetleaf (M): three weeks after application
# Summary of the method: as §1
# [3] = amount of applied herbicide 320 g/ha
SMILES,effect on blackgrass (J) (blackgrass),effect on persian speedwell (R) (persian speedwell),effect on lambsquarters (O) (lambsquarters),effect on barnyard grass (H) (barnyard grass [1]),"herbicidal effect on H (barnyard grass), rating 0-5 (barnyard grass [2])",effect on wild oat (I) (wild oat),effect on southern crabgrass (F) (southern crabgrass),herbicidal effect on blackgrass (J) (blackgrass),herbicidal effect on persian speedwell (R) (persian speedwell),herbicidal effect on lambsquarters (O) (lambsquarters),herbicidal effect on barnyard grass (H) (barnyard grass [1]),herbicidal effect on barnyard grass (H) (barnyard grass [2]),herbicidal effect on wild oat (I) (wild oat),herbicidal effect on southern crabgrass (F) (southern crabgrass),herbicidal effect on windgrass (L) (windgrass),herbicidal effect on rice flat sedge (E) (rice flat sedge),herbicidal effect on Italian ryegrass (K) (Italian ryegrass),herbicidal effect on Chinese sprangletop (D) (Chinese sprangletop),herbicidal effect on green foxtail (G) (green foxtail),herbicidal effect on velvetleaf (M) (velvetleaf),further results
COc1nn(C)c(=O)c(-c2c(-c3cc4ccccc4o3)sc3ccccc23)c1O [1-194],0 (Herbicidal rate of 5% or less (almost no effect)),0 (Herbicidal rate of 5% or less (almost no effect)),0 (Herbicidal rate of 5% or less (almost no effect)),0 (Herbicidal rate of 5% or less (almost no effect)),0 (Herbicidal rate of 5% or less (almost no effect)),1 (Herbicidal rate of 5% or more and less than 20%),0 (Herbicidal rate of 5% or less (almost no effect)),–,–,–,–,–,–,–,–,–,–,–,–,–,"effect on windgrass (L) (windgrass): 0 (Herbicidal rate of 5% or less (almost no effect)); herbicidal effect on E (rice flat sedge), rating 0-5 (rice flat sedge): 2 (Herbicidal rate of 20% or more and less than 40%); effect on Italian ryegrass (K) (Italian ryegrass): 3 (Herbicidal rate of 40% or more and less than 70%); herbicidal effect on D (Chinese sprangletop), rating 0-5 (Chinese sprangletop): 0 (Herbicidal rate of 5% or less (almost no effect)); effect on green foxtail (G) (green foxtail): 0 (Herbicidal rate of 5% or less (almost no effect)); effect on velvetleaf (M) (velvetleaf): 0 (Herbicidal rate of 5% or less (almost no effect))"
COc1cc2sc(-c3ccc(F)cc3)c(-c3c(O)c(C)nn(C)c3=O)c2cc1Cl [5-067],–,–,–,–,–,–,–,1 (Herbicidal rate of 5% or more and less than 20%),4 (Herbicidal rate of 70% or more and less than 90%),3 (Herbicidal rate of 40% or more and less than 70%),0 (Herbicidal rate of 5% or less (almost no effect)),3 (Herbicidal rate of 40% or more and less than 70%),0 (Herbicidal rate of 5% or less (almost no effect)),0 (Herbicidal rate of 5% or less (almost no effect)),1 (Herbicidal rate of 5% or more and less than 20%),4 (Herbicidal rate of 70% or more and less than 90%),0 (Herbicidal rate of 5% or less (almost no effect)),5 (Herbicidal rate of 90% or more (almost completely withered)),0 (Herbicidal rate of 5% or less (almost no effect)),0 (Herbicidal rate of 5% or less (almost no effect)),–
C#CCOc1c(C)nn(C)c(=O)c1-c1c(-c2ccc(F)cc2)sc2ccc(F)cc12 [2-006],0 (Herbicidal rate of 5% or less (almost no effect)),2 (Herbicidal rate of 20% or more and less than 40%),0 (Herbicidal rate of 5% or less (almost no effect)),0 (Herbicidal rate of 5% or less (almost no effect)),2 (Herbicidal rate of 20% or more and less than 40%),0 (Herbicidal rate of 5% or less (almost no effect)),0 (Herbicidal rate of 5% or less (almost no effect)),–,–,–,–,–,–,–,–,–,–,–,–,–,"effect on windgrass (L) (windgrass): 0 (Herbicidal rate of 5% or less (almost no effect)); herbicidal effect on E (rice flat sedge), rating 0-5 (rice flat sedge): 0 (Herbicidal rate of 5% or less (almost no effect)); effect on Italian ryegrass (K) (Italian ryegrass): 0 (Herbicidal rate of 5% or less (almost no effect)); herbicidal effect on D (Chinese sprangletop), rating 0-5 (Chinese sprangletop): 0 (Herbicidal rate of 5% or less (almost no effect)); effect on green foxtail (G) (green foxtail): 0 (Herbicidal rate of 5% or less (almost no effect)); effect on velvetleaf (M) (velvetleaf): 0 (Herbicidal rate of 5% or less (almost no effect))"
COc1ccccc1-c1sc2c(F)cc(F)cc2c1-c1c(O)c(C)nn(C)c1=O [6-001],–,–,–,–,–,–,–,0 (Herbicidal rate of 5% or less (almost no effect)),0 (Herbicidal rate of 5% or less (almost no effect)),3 (Herbicidal rate of 40% or more and less than 70%),3 (Herbicidal rate of 40% or more and less than 70%),3 (Herbicidal rate of 40% or more and less than 70%),0 (Herbicidal rate of 5% or less (almost no effect)),0 (Herbicidal rate of 5% or less (almost no effect)),0 (Herbicidal rate of 5% or less (almost no effect)),4 (Herbicidal rate of 70% or more and less than 90%),0 (Herbicidal rate of 5% or less (almost no effect)),2 (Herbicidal rate of 20% or more and less than 40%),2 (Herbicidal rate of 20% or more and less than 40%),4 (Herbicidal rate of 70% or more and less than 90%),–
Cc1cc2sc(-c3ccc(F)cc3)c(-c3c(O)c(C)nn(C)c3=O)c2cc1C [5-088],–,–,–,–,–,–,–,0 (Herbicidal rate of 5% or less (almost no effect)),4 (Herbicidal rate of 70% or more and less than 90%),0 (Herbicidal rate of 5% or less (almost no effect)),0 (Herbicidal rate of 5% or less (almost no effect)),3 (Herbicidal rate of 40% or more and less than 70%),0 (Herbicidal rate of 5% or less (almost no effect)),0 (Herbicidal rate of 5% or less (almost no effect)),0 (Herbicidal rate of 5% or less (almost no effect)),2 (Herbicidal rate of 20% or more and less than 40%),1 (Herbicidal rate of 5% or more and less than 20%),2 (Herbicidal rate of 20% or more and less than 40%),0 (Herbicidal rate of 5% or less (almost no effect)),2 (Herbicidal rate of 20% or more and less than 40%),–
CCOc1ccccc1-c1oc2ccc(Cl)cc2c1-c1c(O)c(C)nn(C)c1=O [9-003],–,–,–,–,–,–,–,0 (Herbicidal rate of 5% or less (almost no effect)),3 (Herbicidal rate of 40% or more and less than 70%),0 (Herbicidal rate of 5% or less (almost no effect)),0 (Herbicidal rate of 5% or less (almost no effect)),–,0 (Herbicidal rate of 5% or less (almost no effect)),0 (Herbicidal rate of 5% or less (almost no effect)),0 (Herbicidal rate of 5% or less (almost no effect)),–,0 (Herbicidal rate of 5% or less (almost no effect)),–,0 (Herbicidal rate of 5% or less (almost no effect)),3 (Herbicidal rate of 40% or more and less than 70%),"Herbicidal effect on H (barnyard grass), foliage application (barnyard grass [2]; [3]): 3 (Herbicidal rate of 40% or more and less than 70%); Herbicidal effect on E (rice flat sedge), foliage application (rice flat sedge; [3]): 1 (Herbicidal rate of 5% or more and less than 20%); Herbicidal effect on D (Chinese sprangletop), foliage application (Chinese sprangletop; [3]): 0 (Herbicidal rate of 5% or less (almost no effect))"

# — US20230085307A1, “PYRIDAZINONE COMPOUND AND HERBICIDE” (NISSAN CHEMICAL CORPORATION, priority 2019, published 2023)
